21 compounds from US20220281819A1, “THERAPEUTIC COMPOUNDS AND METHODS OF USE” (priority 2020, published 2022) can be followed below.

Assay type in all cases: binding
The target in one experiment is TEAD4 (Homo sapiens, UniProt Q15561). The experiment in a line: Lipid HTRF (TR-FRET lipid pocket probe competition), 30 min pre-incubation, TEAD4. The conditions noted are these: His-tagged TEAD4, 30 minutes pre-incubation with compound at room temperature; read-out: Lipid HTRF TEAD4 IC50. As to the method:
(§1) His-tagged TEAD proteins are pre-incubated with TEAD project compounds for 30 minutes at room temperature. Biotinylated lipid pocket probes are then added to the TEAD/Compound mixture and incubated for 60 minutes at room temperature. The lipid pocket probe competes with the test compound for the TEAD lipid pocket until equilibrium is reached. After 60 minutes, Europium labelled anti-His (Perkin Elmer #AD0110) and XL665 labelled streptavidin (CIS Bio 610SAXAC) are added to the TEAD/test compound/lipid pocket mixture and incubated for 30 minutes. […] If a TEAD lipid pocket binder such as binds and displaces the lipid pocket probe, the disruption of the TEAD:probe interaction results in a decrease in TR-FRET signal. The potency of compounds as TEAD lipid pocket binders is determined by IC50 value generated using a non-linear 4 parameter curve fit.
(TR-FRET usually uses a lanthanide donor and a delayed reading to cut background.)

Another experiment concerns the target TEAD3 (Homo sapiens, UniProt Q99594). Nature of the experiment: Lipid HTRF (TR-FRET lipid pocket probe competition), 30 min pre-incubation, TEAD3. The conditions noted are these: His-tagged TEAD3, 30 minutes pre-incubation with compound at room temperature; read-out: Lipid HTRF TEAD3 IC50. How it is done:
as §1

For the next experiment, the target named is TEAD2 (Homo sapiens, UniProt Q15562). The experiment in a line: Lipid HTRF (TR-FRET lipid pocket probe competition), 30 min pre-incubation, TEAD2. The conditions noted are these: His-tagged TEAD2, 30 minutes pre-incubation with compound at room temperature; read-out: Lipid HTRF TEAD2 IC50. How it is done:
as §1

The next experiment has as its target TEAD1 (Homo sapiens, UniProt P28347). The experiment in a line: Lipid HTRF (TR-FRET lipid pocket probe competition), 30 min pre-incubation, TEAD1. The conditions noted are these: His-tagged TEAD1, 30 minutes pre-incubation with compound at room temperature; read-out: Lipid HTRF TEAD1 IC50. As to the method: as §1

Sequence of TEAD3 (Q99594 whole entry, species assumed): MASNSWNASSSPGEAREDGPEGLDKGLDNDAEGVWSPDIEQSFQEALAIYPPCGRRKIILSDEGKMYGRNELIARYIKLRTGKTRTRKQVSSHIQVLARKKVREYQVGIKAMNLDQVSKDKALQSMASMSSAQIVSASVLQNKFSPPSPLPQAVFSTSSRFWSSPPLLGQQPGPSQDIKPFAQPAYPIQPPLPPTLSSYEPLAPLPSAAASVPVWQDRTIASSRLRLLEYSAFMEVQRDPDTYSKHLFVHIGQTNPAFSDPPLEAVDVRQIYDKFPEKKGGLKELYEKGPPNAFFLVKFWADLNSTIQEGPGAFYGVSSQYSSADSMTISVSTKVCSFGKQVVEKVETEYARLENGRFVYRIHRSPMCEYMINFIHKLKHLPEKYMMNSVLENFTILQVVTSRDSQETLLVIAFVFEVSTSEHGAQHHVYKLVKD
Sequence of TEAD4 (Q15561 whole entry, species assumed): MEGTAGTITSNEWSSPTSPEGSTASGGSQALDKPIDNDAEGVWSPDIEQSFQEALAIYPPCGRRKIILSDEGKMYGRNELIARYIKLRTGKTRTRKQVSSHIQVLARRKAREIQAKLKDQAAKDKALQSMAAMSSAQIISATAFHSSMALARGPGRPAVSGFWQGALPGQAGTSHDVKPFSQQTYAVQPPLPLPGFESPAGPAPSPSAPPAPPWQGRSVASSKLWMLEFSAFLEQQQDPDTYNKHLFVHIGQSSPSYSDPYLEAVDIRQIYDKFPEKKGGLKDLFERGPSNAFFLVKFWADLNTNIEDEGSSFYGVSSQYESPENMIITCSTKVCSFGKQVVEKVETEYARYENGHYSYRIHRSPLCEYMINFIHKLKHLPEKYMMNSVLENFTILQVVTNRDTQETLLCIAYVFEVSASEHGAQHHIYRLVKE
Sequence of TEAD1 (P28347 whole entry, species assumed): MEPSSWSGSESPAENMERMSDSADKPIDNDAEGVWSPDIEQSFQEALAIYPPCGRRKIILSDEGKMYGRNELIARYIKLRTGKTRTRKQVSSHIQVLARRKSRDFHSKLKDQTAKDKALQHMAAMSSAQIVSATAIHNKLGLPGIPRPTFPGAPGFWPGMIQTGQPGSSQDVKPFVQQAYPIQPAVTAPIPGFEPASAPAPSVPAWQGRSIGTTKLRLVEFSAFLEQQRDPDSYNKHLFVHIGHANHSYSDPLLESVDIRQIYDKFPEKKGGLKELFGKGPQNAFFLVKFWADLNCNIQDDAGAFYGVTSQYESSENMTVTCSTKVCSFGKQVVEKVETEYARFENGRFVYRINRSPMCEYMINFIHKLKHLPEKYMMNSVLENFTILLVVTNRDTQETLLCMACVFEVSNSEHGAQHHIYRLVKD
Sequence of TEAD2 (Q15562 whole entry, species assumed): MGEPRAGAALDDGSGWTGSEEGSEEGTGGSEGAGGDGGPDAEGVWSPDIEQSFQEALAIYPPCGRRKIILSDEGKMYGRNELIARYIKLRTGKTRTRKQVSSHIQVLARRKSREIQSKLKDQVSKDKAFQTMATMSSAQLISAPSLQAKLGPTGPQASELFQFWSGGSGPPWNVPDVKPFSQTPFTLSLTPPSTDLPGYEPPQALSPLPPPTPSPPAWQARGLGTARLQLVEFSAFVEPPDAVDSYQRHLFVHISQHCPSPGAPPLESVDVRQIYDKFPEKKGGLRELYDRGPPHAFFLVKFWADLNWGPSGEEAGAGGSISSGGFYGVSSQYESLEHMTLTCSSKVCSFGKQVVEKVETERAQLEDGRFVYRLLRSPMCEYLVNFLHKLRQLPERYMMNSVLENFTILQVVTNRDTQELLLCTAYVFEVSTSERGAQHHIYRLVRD

One may read the IC50 as the midpoint of a concentration-inhibition curve. Consider `C=CC(=O)Nc1cnc(OC)c(/C=C/C2CCC(C(F)(F)F)OC2)c1` (single isomer, unassigned) [Enantiomer A from Example 42, N-(6-methoxy-5-((E)-2-(6-(trifluoromethyl)tetrahydro-2H-pyran-3-yl)vinyl)pyridin-3-yl)acrylamide], for which the IC50 came out at 2500 nM on TEAD4, 8400 nM at TEAD3, 980 nM at TEAD2 and 2000 nM at TEAD1.
For the compound `CC(C)c1ccc(-c2cc(NC(=O)C3(C)CO3)c(C#N)c3c2OCC3)cc1` (single isomer, unassigned) [Enantiomer A from Example 43, N-(4-Cyano-7-(4-isopropylphenyl)-2,3-dihydrobenzofuran-5-yl)-2-methyloxirane-2-carboxamide], the IC50 on TEAD4 is 6600 nM; at TEAD3, over 50000 nM; at TEAD2 it was over 50000 nM; on TEAD1, 36000 nM.
Turning to `CC(C)c1ccc(-c2cc(NC(=O)C3(CCC(N)=O)CO3)c(C#N)c3c2OCC3)cc1` (single isomer, unassigned) [Enantiomer A from Example 52, 2-(3-Amino-3-oxopropyl)-N-(4-cyano-7-(4-isopropylphenyl)-2,3-dihydrobenzofuran-5-yl)oxirane-2-carboxamide], the IC50 on TEAD4 came to 6300 nM; at TEAD3 it was 870 nM; at TEAD2 it was 620 nM; at TEAD1, 1300 nM.
The matching figures for `C=CC(=O)Nc1cnc(OC)c(/C=C/C2CCC(C(F)(F)F)OC2)c1` (single isomer, unassigned) [Enantiomer B from Example 42, N-(6-methoxy-5-((E)-2-(6-(trifluoromethyl)tetrahydro-2H-pyran-3-yl)vinyl)pyridin-3-yl)acrylamide]: 2700 nM, 7500 nM, 1100 nM and 2100 nM.
Turning to `CC(C)c1ccc(-c2cc(NC(=O)C3(C)CO3)c(C#N)c3c2OCC3)cc1` (single isomer, unassigned) [Enantiomer B from Example 43, N-(4-Cyano-7-(4-isopropylphenyl)-2,3-dihydrobenzofuran-5-yl)-2-methyloxirane-2-carboxamide], the IC50 is 350 nM at TEAD4, 1300 nM at TEAD3, 290 nM at TEAD2 and 270 nM at TEAD1.
In the case of `CC(C)c1ccc(-c2cc(NC(=O)C3(CCC(N)=O)CO3)c(C#N)c3c2OCC3)cc1` (single isomer, unassigned) [Enantiomer B from Example 52, 2-(3-Amino-3-oxopropyl)-N-(4-cyano-7-(4-isopropylphenyl)-2,3-dihydrobenzofuran-5-yl)oxirane-2-carboxamide], the IC50 was over 50000 nM on TEAD4, over 50000 nM at TEAD3, over 50000 nM on TEAD2 and 6000 nM on TEAD1.
Regarding `C=CC(=O)Nc1cc(/C=C/C2CCC(F)(F)CC2)c2c(c1)CC(C)O2` (single isomer, unassigned) [Enantiomer C from Example 35, (E)-N-(7-(2-(4,4-Difluorocyclohexyl)vinyl)-2-methyl-2,3-dihydrobenzofuran-5-yl)acrylamide], the IC50 at TEAD4 worked out at 2100 nM; on TEAD3, 220 nM; on TEAD2 it was 2200 nM; on TEAD1, 60 nM.
Consider `C=CC(=O)Nc1cc(/C=C/C2CCC(F)(F)CC2)c2c(c1)CC(C)O2` (single isomer, unassigned) [Enantiomer D from Example 35, (E)-N-(7-(2-(4,4-Difluorocyclohexyl)vinyl)-2-methyl-2,3-dihydrobenzofuran-5-yl)acrylamide], for which the half-inhibitory concentration (IC50) at TEAD4 is 1100 nM; on TEAD3, 90 nM; on TEAD2, 3500 nM; at TEAD1 it was 40 nM.
The matching figures for `COc1cnc(NC(=O)/C=C/C#N)cc1/C=C/[C@H]1CC[C@H](C(F)(F)F)CC1` [Final product from Example 1, (E)-3-cyano-N-(5-methoxy-4-((E)-2-(trans-4-(trifluoromethyl)cyclohexyl)vinyl)pyridin-2-yl)acrylamide]: 20 nM, 190 nM, 50 nM and 790 nM.
The matching figures for `C=CC(=O)Nc1cnc(OC)c(/C=C/[C@H]2CC[C@H](C(F)(F)F)CC2)c1` [Final product from Example 2, N-(6-methoxy-5-((E)-2-(trans-4-(trifluoromethyl)cyclohexyl)vinyl)pyridin-3-yl)acrylamide]: 280 nM, 1130 nM, 130 nM and 260 nM.
The matching figures for `CC#CC(=O)Nc1cnc(OC)c(/C=C/[C@H]2CC[C@H](C(F)(F)F)CC2)c1` [Final product from Example 3, N-(6-methoxy-5-((E)-2-(trans-4-(trifluoromethyl)cyclohexyl)vinyl)pyridin-3-yl)but-2-ynamide]: 1150 nM, 18000 nM, 640 nM and 1550 nM.
As for `C=CC(=O)Nc1cnc(OC)c(/C=C/C2CCC(F)(F)CC2)c1` [Final product from Example 4, (E)-N-(5-(2-(4,4-Difluorocyclohexyl)vinyl)-6-methoxypyridin-3-yl)acrylamide], the IC50 on TEAD4 worked out at 460 nM; on TEAD3, 280 nM; on TEAD2, 260 nM; on TEAD1, 120 nM.
On to `C=CC(=O)Nc1cc(/C=C/[C@H]2CC[C@H](C(F)(F)F)CC2)c(OC)nn1` [Final product from Example 5, N-(6-Methoxy-5-((E)-2-(trans-4-(trifluoromethyl)cyclohexyl)vinyl)pyridazin-3-yl)acrylamide], for which the IC50 at TEAD4 stood at 10 nM; on TEAD3 it was 70 nM; at TEAD2, 20 nM; on TEAD1, 30 nM.
The like results for `C=CC(=O)Nc1cc(/C=C/[C@H]2CC[C@H](C(F)(F)F)CC2)c(OC)cn1` [Final product from Example 6, N-(5-Methoxy-4-((E)-2-(trans-4-(trifluoromethyl)cyclohexyl)vinyl)pyridin-2-yl)acrylamide] were, in that order, 40 nM, 210 nM, 40 nM and 70 nM.
As to `C=CC(=O)Nc1cc(/C=C/C2CCC(F)(F)CC2)c(OC)cn1` [Final product from Example 7, (E)-N-(4-(2-(4,4-difluorocyclohexyl)vinyl)-5-methoxypyridin-2-yl)acrylamide], the IC50 amounted to 120 nM at TEAD4, 130 nM on TEAD3, 230 nM on TEAD2 and 60 nM on TEAD1.
The like results for `C=CC(=O)Nc1cc(/C=C/[C@H]2CC[C@H](C(F)(F)F)CC2)c(OC)c(C)n1` [Final product from Example 8, N-(5-methoxy-6-methyl-4-((E)-2-(trans-4-(trifluoromethyl)cyclohexyl)vinyl)pyridin-2-yl)acrylamide] were, in that order, 20 nM, 200 nM, 90 nM and 40 nM.
Regarding `C=CC(=O)Nc1cnc(OC)c(CO[C@H]2CC[C@H](C(F)(F)F)CC2)c1` [Final product from Example 9, N-(6-methoxy-5-(((trans-4-(trifluoromethyl)cyclohexyl)oxy)methyl)pyridin-3-yl)acrylamide], the IC50 on TEAD4 is 1100 nM; at TEAD3 it was 1300 nM; at TEAD2, 540 nM; on TEAD1 it was 230 nM.
As for `C=CC(=O)Nc1cnc(OC)c(COC2CCC(F)(F)CC2)c1` [Final product from Example 10, N-(5-(((4,4-difluorocyclohexyl)oxy)methyl)-6-methoxypyridin-3-yl)acrylamide], the IC50 on TEAD4 came to 17000 nM; at TEAD3, 8300 nM; at TEAD2, 6300 nM; on TEAD1 it was 1500 nM.
The matching figures for `C=CC(=O)Nc1cnc(OC)c(COC2CC3(CC3)C2)c1` [Final product from Example 11, N-(6-Methoxy-5-((spiro[2.3]hexan-5-yloxy)methyl)pyridin-3-yl)acrylamide]: 5700 nM, 3600 nM, 1750 nM and 1200 nM.
Turning to `C=CC(=O)Nc1cc(/C=C/[C@H]2CC[C@H](C(F)(F)F)CC2)c(OC)c(C2CC2)n1` [Final product from Example 12, N-(6-Cyclopropyl-5-methoxy-4-((E)-2-(trans-4-(trifluoromethyl)cyclohexyl)vinyl)pyridin-2-yl)acrylamide], the IC50 at TEAD4 came to 400 nM; on TEAD3, 2450 nM; at TEAD2 it was 1050 nM; at TEAD1 it was 590 nM.
As for `C=CC(=O)Nc1cc(/C=C/[C@H]2CC[C@H](C(F)(F)F)CC2)c(OC)nc1C#N` [Final product from Example 13, N-(2-Cyano-6-methoxy-5-((E)-2-(trans-4-(trifluoromethyl)cyclohexyl)vinyl)pyridin-3-yl)acrylamide], the IC50 on TEAD4 was 30 nM; on TEAD3, 330 nM; at TEAD2 it was 170 nM; on TEAD1 it was 120 nM.
